pIC50: −log10 of the molar value.

Experimental findings from ChEMBL document CHEMBL1132893, “The design and synthesis of potent cyclic peptide VCAM-VLA-4 antagonists incorporating an achiral Asp-Pro mimetic” (Bioorg Med Chem Lett, 2000) are described below.

Assay [1] has as its target T1, Integrin alpha-4 (Homo sapiens, UniProt P13612).
T1 sequence (P13612 whole entry): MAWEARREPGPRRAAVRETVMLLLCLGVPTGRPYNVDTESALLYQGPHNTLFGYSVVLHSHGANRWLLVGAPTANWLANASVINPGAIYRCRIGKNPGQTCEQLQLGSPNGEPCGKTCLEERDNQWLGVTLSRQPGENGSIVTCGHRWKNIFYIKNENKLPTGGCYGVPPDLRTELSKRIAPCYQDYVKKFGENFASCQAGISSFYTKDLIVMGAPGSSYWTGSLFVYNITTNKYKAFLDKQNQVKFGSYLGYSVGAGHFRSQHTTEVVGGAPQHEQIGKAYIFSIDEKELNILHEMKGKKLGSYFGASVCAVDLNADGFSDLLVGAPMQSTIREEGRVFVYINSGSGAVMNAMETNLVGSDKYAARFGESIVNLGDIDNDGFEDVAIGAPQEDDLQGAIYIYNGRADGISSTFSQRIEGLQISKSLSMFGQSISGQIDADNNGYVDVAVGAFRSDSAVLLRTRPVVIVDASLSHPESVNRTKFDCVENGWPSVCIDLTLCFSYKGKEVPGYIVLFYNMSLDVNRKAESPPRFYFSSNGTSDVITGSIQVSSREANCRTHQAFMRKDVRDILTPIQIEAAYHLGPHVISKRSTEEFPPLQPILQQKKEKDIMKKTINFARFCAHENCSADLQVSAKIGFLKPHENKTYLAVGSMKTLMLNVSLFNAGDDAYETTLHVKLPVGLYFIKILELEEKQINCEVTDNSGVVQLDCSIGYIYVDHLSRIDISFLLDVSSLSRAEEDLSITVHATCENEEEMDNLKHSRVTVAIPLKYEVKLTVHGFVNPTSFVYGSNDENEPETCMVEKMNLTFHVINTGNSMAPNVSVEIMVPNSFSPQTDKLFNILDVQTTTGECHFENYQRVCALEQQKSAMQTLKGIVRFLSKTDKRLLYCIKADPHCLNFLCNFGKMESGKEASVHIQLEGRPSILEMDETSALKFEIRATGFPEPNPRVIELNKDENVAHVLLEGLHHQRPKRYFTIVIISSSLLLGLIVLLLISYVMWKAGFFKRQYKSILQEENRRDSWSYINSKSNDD
Put plainly: Inhibition of VLA-4 binding to recombinant human VCAM using Ramos cell assay. The format is cell-based.

Assay [2] deals with T1, Integrin alpha-4. Put plainly: Inhibition of VLA-4 binding to recombinant human VCAM using Solid phase assay.

Take `CC(=O)N[C@@H](Cc1ccc(O)cc1)C(=O)N[C@H]1CSSC[C@@H](C(=O)O)NC(=O)C2(CCCC2)CCNC1=O`: the negative-log IC50 (pIC50) at Integrin alpha-4 [1] was 7.92; on Integrin alpha-4 [2], 9.15. `N[C@@H](Cc1ccc(O)cc1)C(=O)N[C@H]1CSSC[C@@H](C(=O)O)NC(=O)C2(CCCC2)CNC1=O`: the negative-log IC50 (pIC50) at Integrin alpha-4 [2] was 8.30.

Turning to `CC1(C)CCNC(=O)[C@@H](NC(=O)[C@@H](N)Cc2ccc(O)cc2)CSSC[C@@H](C(=O)O)NC1=O`, at Integrin alpha-4 [2], the negative logarithm of the IC50 (pIC50) is 6.95. Consider `N[C@@H](Cc1ccc(O)cc1)C(=O)N[C@H]1CSSC[C@@H](C(=O)O)NC(=O)C2(CCCC2)CCCNC1=O`, for which the pIC50 is 6.32 at Integrin alpha-4 [1] and 7.72 at Integrin alpha-4 [2].

Take `CCC1(CC)CCNC(=O)[C@@H](NC(=O)[C@@H](N)Cc2ccc(O)cc2)CSSC[C@@H](C(=O)O)NC1=O`: the negative logarithm of the IC50 (pIC50) on Integrin alpha-4 [2] is 8.41. Consider `N[C@@H](Cc1ccc(O)cc1)C(=O)N[C@H]1CSSC[C@@H](C(=O)O)NC(=O)C2(CCCC2)CCNC1=O`, for which the pIC50 at Integrin alpha-4 [1] was 7.62.
